Patent EP1311531B1, “STEROID DERIVED ANTIBIOTICS” (Brigham Young University, priority 2000, dated 2002)
Converted amounts (≈) assume the structure as drawn.

Columns and labels:
[1] = test system: Streptococcus pyogenes ATCC 19615; assay: MIC and MBC measurement; format: cell-based; settings: ATCC19615, Table 10
Summary of the method: (§1)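 Tube broth dilution in TSB with stepped concentrations of cholic acid derivatives, alone or with erythromycin or novobiocin. MIC = no measurable turbidity; MBC from overnight TSA subcultures of clear tubes, colony counts converted to CFU/mL versus original inoculum.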

[2] = test system: Pseudomonas aeruginosa ATCC 27853; assay: MIC and MBC measurement; format: cell-based
Summary of the method: as §1

[3] = test system: Klebsiella pneumonia ATCC 13883; assay: MIC and MBC measurement; format: cell-based; settings: Klebsiella pneumoniae, ATCC13883
Summary of the method: as §1

[4] = test system: Salmonella typhimurium ATCC 14028; assay: Sensitization to erythromycin, novobiocin or rifampicin (permeabilization, FIC); format: cell-based; settings: Table 13; with rifampicin (order of b151); Salmonella typhimurium ATCC 14028^b (footnote b not given)
[5] = test system: Pseudomonas aeruginosa ATCC 27853; assay: as above; format: cell-based; settings: for MBC: Pseudomonas aeruginosa; for MBC / concentration required to lower the MIC of erythromycin from 240 µg/mL to 5 µg/mL: Table 7, with erythromycin; for MBC / concentration required to lower the MIC of erythromycin from 240 µg/mL to 5 µg/mL / concentration required to lower the MIC of novobiocin from >500 µg/mL to 1 µg/mL: P. aureginosa (ATCC 27853); for concentration required to lower the MIC of novobiocin from >500 µg/mL to 1 µg/mL: Table 8, with novobiocin
Method: (§2) FICs can be performed by checkerboard titrations of compounds in one dimension of a microtiter plate, and of antibiotics in the other dimension, for example. The FIC is calculated by looking at the impact of one antibiotic on the MIC of the other and vice versa. […] Preferably, an FIC of less than 0.5 is obtained for synergism. As used herein, FIC can be determined as follows: FIC = (MIC(compound in combination))/(MIC(compound alone)) + (MIC(antibiotic in combination))/(MIC(antibiotic alone)) [formula]
(§3) Aliquots of 1 mL of the suspension were added to test tubes containing 1 mL TSB and incrementally varied concentrations of cholic acid derivatives and/or erythromycin or novobiocin. In the sensitization experiments, erythromycin or novobiocin were added 15 minutes later than the cholic acid derivatives. The samples were subjected to stationary incubation at 37°C for 24 hours. Sample turbidity was determined by measuring absorption at 760 nm (HP 8453 UV-Visible Chemstation, Hewlett Packard). Additionally, an alliquot from each of the samples showing no measurable turbidity was subcultured on TSA plates (alliquots were diluted to provide fewer than 300 CFU). Colonies that grew on the subculture after overnight incubation were counted and the number of CFU/mL in the samples were calculated. The calculated values were compared to the number of CFU/mL in the original inoculum.
(§4) Concentrations of 0.5, 1.0 or 3.0 µg/mL of these antibiotics were used, and the concentrations of the cholic acid derivatives required to inhibit bacterial growth of Gram-negative strains were determined.

[6] = test system: Salmonella typhimurium ATCC 14028; assay: as above; format: cell-based
Method: as §2, §3, §4

[7] = test system: outer membrane of Gram-negative bacteria; assay: Luciferin/luciferase luminescence assay of membrane permeabilization; format: cell-based, E. coli; settings: Escherichia coli; permeabilization of the outer membrane allowing luciferin to enter the cell; read-out: half maximum luminescence
Method: Using a technique described by J. M. Shupp, S. E. Travis, L. B. Price, R. F. Shand, P. Keim, RAPID BACTERIAL PERMEABILIZATION REAGENT USEFUL FOR ENZYME ASSAYS, Biotechniques, 1995, vol.
In this assay, E. coli containing an inducible luciferase coding plasmid was incubated with the inducing agent […], then treated with a lysis buffer containing either PMB or one of the cholic acid derivatives, and Triton X-100. Luciferin and ATP were then added. […] The concentrations of the membrane disrupting agents (PMB and the cholic acid derivatives) were varied, and the resulting luminescence was measured.

[8] = ATCC27853, Table 10, Pseudomonas aeruginosa ATCC 27853
[9] = Table 12, with novobiocin (order of b151), Pseudomonas aeruginosa ATCC 27853
[10] = Table 13, with rifampicin (order of b151), Pseudomonas aeruginosa ATCC 27853^b (footnote b not given)
[11] = Table 11, with erythromycin (order of b151)
[12] = Table 12, with novobiocin (order of b151)
[13] = ATCC27853, Table 6, P. aureginosa (ATCC 27853)

C[C@]12CC[C@@H](OCCCN)C[C@H]1C[C@@H](OCCCN)[C@@H]1[C@@H]2C[C@H](OCCCN)[C@]2(C)[C@@H](O)CC[C@@H]12 [Compound 106] gave an MBC [1] of 37 µg/mL (≈ 74.6 µM), an MIC [1] of 18 µg/mL (≈ 36.3 µM) and an MBC [2, 8] of 97 µg/mL (≈ 196 µM). It also gave an MIC [2, 8] of 85 µg/mL (≈ 171 µM), an MBC [3] of 100 µg/mL (≈ 202 µM) and an MIC [3] of over 100 µg/mL. The FIC [4] was 0.064, the “concentration required for bacterial growth inhibition” value [4] was 1.4 µg/mL and the FIC ([5]; ATCC27853) was 0.22. For the same compound, the “concentration required for bacterial growth inhibition” value ([5]; ATCC27853) was 16 µg/mL, the “concentration required for bacterial growth inhibition” value [5, 9] was 30 µg/mL and the FIC [5, 10] was 0.17. For the same compound, the FIC [6, 11] was 0.088, the “concentration required for bacterial growth inhibition” value [6, 11] was 7.1 µg/mL and the FIC [6, 12] was 0.094. For the same compound, the “concentration required for bacterial growth inhibition” value [6, 12] was 8.4 µg/mL.

C[C@H](CCCN(C)Cc1ccccc1)[C@H]1CC[C@H]2[C@@H]3[C@H](OCCCNC(=N)N)C[C@@H]4C[C@H](OCCCNC(=N)N)CC[C@]4(C)[C@H]3C[C@H](OCCCNC(=N)N)[C@]12C [Compound 5] gave an MBC [1] of 2.1 µg/mL (≈ 2.64 µM), an MIC [1] of 2 µg/mL (≈ 2.52 µM) and an MBC [2, 13] of 15 µg/mL (≈ 18.9 µM). The MIC [2, 13] was 6 µg/mL (≈ 7.55 µM), the MBC [2, 8] was 9.9 µg/mL (≈ 12.5 µM) and the MIC [2, 8] was 5.9 µg/mL (≈ 7.42 µM). For the same compound, the MBC [3] was 6.7 µg/mL (≈ 8.43 µM), the MIC [3] was 3 µg/mL (≈ 3.77 µM) and the FIC ([5]; ATCC27853) was 0.42. The “concentration required for bacterial growth inhibition” value ([5]; ATCC27853) was 2.3 µg/mL, the MBC ([5]; ATCC27853) was 10 µg/mL and the “concentration required to lower the MIC of erythromycin from 240 µg/mL to 5 µg/mL” value [5] was 3 µg/mL. For the same compound, the “concentration required to lower the MIC of novobiocin from >500 µg/mL to 1 µg/mL” value [5] was 6 µg/mL, the FIC [6, 11] was 0.23 and the “concentration required for bacterial growth inhibition” value [6, 11] was 0.46 µg/mL.

For C[C@H](CCCN(C)Cc1ccccc1)[C@H]1CC[C@H]2[C@@H]3[C@H](OCCCN)C[C@@H]4C[C@H](OCCCN)CC[C@]4(C)[C@H]3C[C@H](OCCCN)[C@]12C [Compound 2], the MBC [1] was 2.3 µg/mL (≈ 3.44 µM), the MIC [1] was 2 µg/mL (≈ 2.99 µM) and the MBC [2, 13] was 40 µg/mL (≈ 59.8 µM). It also gave an MIC [2, 13] of 9 µg/mL (≈ 13.5 µM), an MBC [2, 8] of over 17 µg/mL and an MIC [2, 8] of 11 µg/mL (≈ 16.4 µM). The MBC [3] was 17 µg/mL (≈ 25.4 µM), the MIC [3] was 14 µg/mL (≈ 20.9 µM) and the FIC [4] was 0.079. The “concentration required for bacterial growth inhibition” value [4] was 0.39 µg/mL, the EC50 [7] was 7 µg/mL (≈ 10.5 µM) and the FIC ([5]; ATCC27853) was 0.25. For the same compound, the “concentration required for bacterial growth inhibition” value ([5]; ATCC27853) was 2.4 µg/mL, the MBC ([5]; ATCC27853) was 25 µg/mL and the “concentration required to lower the MIC of erythromycin from 240 µg/mL to 5 µg/mL” value [5] was 4 µg/mL. For the same compound, the “concentration required to lower the MIC of novobiocin from >500 µg/mL to 1 µg/mL” value [5] was 4 µg/mL, the “concentration required for bacterial growth inhibition” value [5, 9] was 2.9 µg/mL and the FIC [5, 10] was 0.086. For the same compound, the FIC [6, 11] was 0.17, the “concentration required for bacterial growth inhibition” value [6, 11] was 2.0 µg/mL and the FIC [6, 12] was 0.36. The “concentration required for bacterial growth inhibition” value [6, 12] was 4.5 µg/mL.

CCCOCCC[C@@H](C)[C@H]1CC[C@H]2[C@@H]3[C@H](OCCCN)C[C@@H]4C[C@H](OCCCN)CC[C@]4(C)[C@H]3C[C@H](OCCCN)[C@]12C [Compound 112] was tested, and the MBC [1] was 3 µg/mL (≈ 4.93 µM), the MIC [1] was 2.4 µg/mL (≈ 3.95 µM) and the MBC [2, 8] was 6.4 µg/mL (≈ 10.5 µM). The MIC [2, 8] was 4.6 µg/mL (≈ 7.57 µM), the MBC [3] was 27 µg/mL (≈ 44.4 µM) and the MIC [3] was 23 µg/mL (≈ 37.8 µM). The FIC [4] was 0.051, the “concentration required for bacterial growth inhibition” value [4] was 0.10 µg/mL and the FIC ([5]; ATCC27853) was 0.59. The “concentration required for bacterial growth inhibition” value ([5]; ATCC27853) was 1.0 µg/mL, the “concentration required for bacterial growth inhibition” value [5, 9] was 0.72 µg/mL and the FIC [5, 10] was 0.15. The FIC [6, 11] was 0.019, the “concentration required for bacterial growth inhibition” value [6, 11] was 0.20 µg/mL and the FIC [6, 12] was 0.015. For the same compound, the “concentration required for bacterial growth inhibition” value [6, 12] was 0.39 µg/mL.

Work on C[C@H](CCCO)[C@H]1CC[C@H]2[C@@H]3[C@H](OCCCN)C[C@@H]4C[C@H](OCCCN)CC[C@]4(C)[C@H]3C[C@H](OCCCN)[C@]12C [Compound 10] yielded an MBC [1] of 5.8 µg/mL (≈ 10.2 µM), an MIC [1] of 4.2 µg/mL (≈ 7.42 µM) and an MIC [2, 13] of 23 µg/mL (≈ 40.6 µM). For the same compound, the MBC [2, 8] was 36 µg/mL (≈ 63.6 µM), the MIC [2, 8] was 21 µg/mL (≈ 37.1 µM) and the MBC [3] was 50 µg/mL (≈ 88.4 µM). For the same compound, the MIC [3] was 47 µg/mL (≈ 83.1 µM), the FIC [4] was 0.063 and the “concentration required for bacterial growth inhibition” value [4] was 0.55 µg/mL. The EC50 [7] was 33 µg/mL (≈ 58.3 µM), the FIC ([5]; ATCC27853) was 0.13 and the “concentration required for bacterial growth inhibition” value ([5]; ATCC27853) was 2.1 µg/mL. The “concentration required to lower the MIC of erythromycin from 240 µg/mL to 5 µg/mL” value [5] was 7 µg/mL, the “concentration required for bacterial growth inhibition” value [5, 9] was 5.3 µg/mL and the FIC [5, 10] was 0.083. For the same compound, the FIC [6, 11] was 0.037, the “concentration required for bacterial growth inhibition” value [6, 11] was 0.87 µg/mL and the FIC [6, 12] was 0.052. The “concentration required for bacterial growth inhibition” value [6, 12] was 1.8 µg/mL.

In the case of C[C@H](CCCN(C)Cc1ccccc1)[C@H]1CC[C@H]2[C@@H]3[C@H](OCCN)C[C@@H]4C[C@H](OCCN)CC[C@]4(C)[C@H]3C[C@H](OCCN)[C@]12C [Compound 1], the MBC [1] is reported as 4.4 µg/mL (≈ 7.02 µM), the MIC [1] is reported as 3 µg/mL (≈ 4.78 µM) and the MBC [2, 13] is reported as over 50 µg/mL. It also gave an MIC [2, 13] of 15 µg/mL (≈ 23.9 µM), an MBC [2, 8] of 38 µg/mL (≈ 60.6 µM) and an MIC [2, 8] of 26 µg/mL (≈ 41.5 µM). The MBC [3] was over 36 µg/mL, the MIC [3] was 24 µg/mL (≈ 38.3 µM) and the FIC [4] was 0.089. The “concentration required for bacterial growth inhibition” value [4] was 0.84 µg/mL, the FIC ([5]; ATCC27853) was 0.29 and the “concentration required for bacterial growth inhibition” value ([5]; ATCC27853) was 6.6 µg/mL. For the same compound, the MBC ([5]; ATCC27853) was 45 µg/mL, the “concentration required to lower the MIC of erythromycin from 240 µg/mL to 5 µg/mL” value [5] was 8 µg/mL and the “concentration required to lower the MIC of novobiocin from >500 µg/mL to 1 µg/mL” value [5] was 6 µg/mL. The “concentration required for bacterial growth inhibition” value [5, 9] was 3.9 µg/mL, the FIC [5, 10] was 0.096 and the FIC [6, 11] was 0.19. The “concentration required for bacterial growth inhibition” value [6, 11] was 3.6 µg/mL, the FIC [6, 12] was 0.22 and the “concentration required for bacterial growth inhibition” value [6, 12] was 4.4 µg/mL.
